Measurements: patent publication US11274092B2, “Potassium channel inhibitors” (ACESION PHARMA ApS, priority 2016, dated 2022)

Target: T1, human SK3 channel (hKCa2.3) (Homo sapiens, UniProt Q9UGI6)
T1 construct: expressed in transfected cells
Experiment: Automated whole cell patch-clamp (QPatch 16 HT), inhibition of SK3 current
Assay type: cell-based
Conditions: HEK-293 cells stably expressing hKCa2.3; symmetrical K+ solutions, free calcium 400 nM; effects normalized to N-methyl bicuculline
Description: Automated whole cell patch-clamp recordings were performed using a QPatch 16 HT system and single-hole Qplates (Biolin Scientific, Sophion, Denmark) on HEK-293 cells stably expressing the human SK3 channel (hKCa2.3). Cells were cultured and prepared for experiments using normal cell culturing procedures. A total of 4-5 million cells were used per experiment. The Qpatch automatically generates giga sealing, whole-cell formation, compound application and recording of current. hKCa2.3 currents were recorded in symmetrical K^+ solutions, with an intracellular solution consisting of in mM: KCl 108; KOH/EGTA (ethylene glycol-bis(2-aminoethylether)-N,N,N′,N′-tetraacetic acid) 31.25/10; CaCl2) 8.1; MgCl2 1.2; HEPES (2-[4-(2-hydroxyethyl)piperazin-1-yl]ethanesulfonic acid) 10; KOH 15, pH adjusted to pH=7.2 with HCl. The free calcium concentration was calculated to 400 nM. The extracellular solution consisted of in mM: KCl 150; CaCl2) 0.1; MgCl2 3; HEPES 10; Glucose 10, pH=7.4 with KOH. The cells were held at 0 mV and hKCa2.3 currents were elicited by a linear voltage ramp from […] (200 ms in duration) applied every 5th second. The compound application protocol consisted of 12 recording periods lasting from 50-200 s: 1) Baseline recordings in extracellular solution; 2) Application of the positive control N-methyl bicuculline (100 μM), which is characterized by full efficacy, fast on- and off-rate; 3-4) Wash-out; 5-9) Increasing concentrations of test compound to establish an IC50 value; 10-11) Wash-out; 12) positive control with compound NS8593 (N-[(1R)-1,2,3,4-tetrahydro-1-naphthalenyl]-1H-benzimidazol-2-amine) (1 μM). Data were sampled at 10 kHz, 4th order Bessel filter, cut-off frequency 3 kHz. Currents were compensated for run-down. Potency was quantified as the concentration needed to inhibit half of the SK channel activity and reported as an IC50 value. All effects of compounds of the present invention as tested were normalized to the observed inhibitory effect of N-methyl bicuculline.

Question: For CC(C)S(=O)(=O)N1CCN(C(=O)C(Nc2nc3ccccc3[nH]2)c2cccc(C(F)(F)F)c2)CC1 (stereo not drawn) [Example 33, 2-[(1H-1,3-benzodiazol-2-yl)amino]-1-[4-(propane-2-sulfonyl)piperazin-1-yl]-2-[3-(trifluoromethyl)phenyl]ethan-1-one], which IC50 is on record?
Answer: 10 to 100 µM

Question: For O=C(C(Nc1nc2ccccc2[nH]1)c1cccc(C(F)(F)F)c1)N1CCC1 (stereo not drawn) [Example 34, 1-(azetidin-1-yl)-2-[(1H-1,3-benzodiazol-2-yl)amino]-2-[3-(trifluoromethyl)phenyl]ethan-1-one], which IC50 is on record?
Answer: < 10 µM

Question: Which IC50 does the source give for O=C(NC1COC1)C(Nc1nc2ccccc2[nH]1)c1cccc(C(F)(F)F)c1 (stereo not drawn) [Example 35, 2-[(1H-1,3-benzodiazol-2-yl)amino]-N-(oxetan-3-yl)-2-[3-(trifluoromethyl)phenyl]acetamide] here?
Answer: 10 to 100 µM

Question: O=C(C(Nc1nc2ccccc2[nH]1)c1cccc(C(F)(F)F)c1)N1CC2(COC2)C1 (stereo not drawn) [Example 36, 2-[(1H-1,3-benzodiazol-2-yl)amino]-1-{2-oxa-6-azaspiro[3.3]heptan-6-yl}-2-[3-(trifluoromethyl)phenyl]ethan-1-one] was tested. Which IC50 did it give?
Answer: 10 to 100 µM

Question: C[N+]1(C)CCN(C(=O)C(Nc2nc3ccccc3[nH]2)c2cccc(C(F)(F)F)c2)CC1 (stereo not drawn) [Example 37, 4-{2-[(1H-1,3-benzodiazol-2-yl)amino]-2-[3-(trifluoromethyl)phenyl]acetyl}-1,1-dimethylpiperazin-1-ium iodide] was tested. Which IC50 did it give?
Answer: 10 to 100 µM

Question: With CCN(CCO)C(=O)C(Nc1nc2ccccc2[nH]1)c1cccc(C(F)(F)F)c1 (stereo not drawn) [Example 38, 2-[(1H-1,3-benzodiazol-2-yl)amino]-N-ethyl-N-(2-hydroxyethyl)-2-[3-(trifluoromethyl)phenyl]acetamide] as the molecule, how does the IC50 read?
Answer: < 10 µM

Question: With CCN(CCO)C(=O)CC(Nc1nc2ccccc2[nH]1)c1cccc(C(F)(F)F)c1 (stereo not drawn) [Example 41, 3-[(1H-1,3-benzodiazol-2-yl)amino]-N-ethyl-N-(2-hydroxy-ethyl)-3-[3-(trifluoromethyl)phenyl]propanamide] as the molecule, how does the IC50 read?
Answer: < 10 µM

Question: Which IC50 does the source give for COCCNC(=O)CC(Nc1nc2ccccc2[nH]1)c1cccc(C(F)(F)F)c1 (stereo not drawn) [Example 42, 3-[(1H-1,3-benzodiazol-2-yl)amino]-N-(2-methoxyethyl)-3-[3-(trifluoromethyl)phenyl]propanamide] here?
Answer: < 10 µM

Question: Which IC50 does the source give for COCCN(C)C(=O)CC(Nc1nc2ccccc2[nH]1)c1cccc(C(F)(F)F)c1 (stereo not drawn) [Example 43, 3-[(1H-1,3-benzodiazol-2-yl)amino]-N-(2-methoxyethyl)-N-methyl-3-[3-(trifluoromethyl)phenyl]propanamide] here?
Answer: < 10 µM

Question: CNCCN(C)C(=O)CC(Nc1nc2ccccc2[nH]1)c1cccc(C(F)(F)F)c1 (stereo not drawn) [Example 44, 3-[(1H-1,3-benzodiazol-2-yl)amino]-N-methyl-N-[2-(methylamino)ethyl]-3-[3-(trifluoromethyl)phenyl]propanamide] was tested. Which IC50 did it give?
Answer: 10 to 100 µM

Question: CCN(CCN(C)C)C(=O)CC(Nc1nc2ccccc2[nH]1)c1cccc(C(F)(F)F)c1 (stereo not drawn) [Example 45, 3-[(1H-1,3-benzodiazol-2-yl)amino]-N-[2-(dimethylamino)ethyl]-N-ethyl-3-[3-(trifluoromethyl)phenyl]propanamide] was tested. Which IC50 did it give?
Answer: 10 to 100 µM

Question: Which IC50 does the source give for COC(=O)[C@@H](C)NC(=O)CC(Nc1nc2ccccc2[nH]1)c1cccc(C(F)(F)F)c1 (stereo partly drawn) [Example 46, Methyl (2R)-2-{3-[(1H-1,3-benzodiazol-2-yl)amino]-3-[3-(trifluoromethyl)phenyl]propanamido}propanoate] here?
Answer: < 10 µM

Question: Which IC50 does the source give for CCN(CC(=O)OC)C(=O)CC(Nc1nc2ccccc2[nH]1)c1cccc(C(F)(F)F)c1 (stereo not drawn) [Example 47, Methyl 2-{3-[(1H-1,3-benzodiazol-2-yl)amino]-N-ethyl-3-[3-(trifluoromethyl)phenyl]propanamido}acetate] here?
Answer: < 10 µM

Question: How did the IC50 turn out when CCOC(=O)CN(CC)C(=O)CC(Nc1nc2ccccc2[nH]1)c1cccc(C(F)(F)F)c1 (stereo not drawn) [Example 48, Ethyl 2-{3-[(1H-1,3-benzodiazol-2-yl)amino]-N-ethyl-3-[3-(trifluoromethyl)phenyl]propanamido}acetate] was run?
Answer: < 10 µM

Question: Which IC50 does the source give for CCN(CCO)C(=O)CC(Nc1nc2c(CO)cccc2[nH]1)c1cccc(C(F)(F)F)c1 (stereo not drawn) [Example 49, N-ethyl-N-(2-hydroxyethyl)-3-{[4-(hydroxymethyl)-1H-1,3-benzodiazol-2-yl]amino}-3-[3-(trifluoromethyl)phenyl]propanamide] here?
Answer: 10 to 100 µM

Question: CN(CC#N)C(=O)CC(Nc1nc2c(CO)cccc2[nH]1)c1cccc(C(F)(F)F)c1 (stereo not drawn) [Example 50, N-(cyanomethyl)-3-{[4-(hydroxymethyl)-1H-1,3-benzodiazol-2-yl]amino}-N-methyl-3-[3-(trifluoromethyl)phenyl]propanamide] was tested. Which IC50 did it give?
Answer: 10 to 100 µM

Question: CN(CC#N)C(=O)CC(Nc1nc2c(CCO)cccc2[nH]1)c1cccc(C(F)(F)F)c1 (stereo not drawn) [Example 51, N-(cyanomethyl)-3-{[4-(2-hydroxyethyl)-1H-1,3-benzodiazol-2-yl]amino}-N-methyl-3-[3-(trifluoromethyl)phenyl]propanamide] was tested. Which IC50 did it give?
Answer: 10 to 100 µM

Question: How did the IC50 turn out when CCN(CC#N)C(=O)CC(Nc1nc2c(CCO)cccc2[nH]1)c1cccc(C(F)(F)F)c1 (stereo not drawn) [Example 52, N-(cyanomethyl)-N-ethyl-3-{[4-(2-hydroxyethyl)-1H-1,3-benzodiazol-2-yl]amino}-3-[3-(trifluoromethyl)phenyl]propanamide] was run?
Answer: 10 to 100 µM

Question: With CCN(CC#N)C(=O)CC(Nc1nc2c(CO)cccc2[nH]1)c1cccc(C(F)(F)F)c1 (stereo not drawn) [Example 53, N-(cyanomethyl)-N-ethyl-3-{[4-(hydroxymethyl)-1H-1,3-benzodiazol-2-yl]amino}-3-[3-(trifluoromethyl)phenyl]propanamide] as the molecule, how does the IC50 read?
Answer: 10 to 100 µM

Question: CCN(CC(N)=O)C(=O)CC(Nc1nc2c(CO)cccc2[nH]1)c1cccc(C(F)(F)F)c1 (stereo not drawn) [Example 54, N-(carbamoylmethyl)-N-ethyl-3-{[4-(hydroxymethyl)-1H-1,3-benzodiazol-2-yl]amino}-3-[3-(trifluoromethyl)phenyl]propanamide] was tested. Which IC50 did it give?
Answer: < 10 µM

Question: CCN(CC#N)C(=O)CC(Nc1nc2ccccc2[nH]1)c1cccc(C(F)(F)F)c1 (stereo not drawn) [Example 55, 3-[(1H-1,3-benzodiazol-2-yl)amino]-N-(cyanomethyl)-N-ethyl-3-[3-(trifluoromethyl)phenyl]propanamide] was tested. Which IC50 did it give?
Answer: < 10 µM

Question: For CN(CC#N)C(=O)CC(Nc1nc2ccccc2[nH]1)c1cccc(C(F)(F)F)c1 (stereo not drawn) [Example 56, 3-[(1H-1,3-benzodiazol-2-yl)amino]-N-(cyanomethyl)-N-methyl-3-[3-(trifluoromethyl)phenyl]propanamide], which IC50 is on record?
Answer: < 10 µM

Question: How did the IC50 turn out when COC(=O)CN(C)C(=O)CC(Nc1nc2ccccc2[nH]1)c1cccc(C(F)(F)F)c1 (stereo not drawn) [Example 57, Methyl 2-{3-[(1H-1,3-benzodiazol-2-yl)amino]-N-methyl-3-[3-(trifluoromethyl)phenyl]propanamido}acetate] was run?
Answer: < 10 µM

Question: With CCN(CCSC)C(=O)CC(Nc1nc2c(CO)cccc2[nH]1)c1cccc(C(F)(F)F)c1 (stereo not drawn) [Example 58, N-ethyl-3-{[4-(hydroxymethyl)-1H-1,3-benzodiazol-2-yl]amino}-N-[2-(methylsulfanyl)ethyl]-3-[3-(trifluoromethyl)phenyl]propanamide] as the molecule, how does the IC50 read?
Answer: < 10 µM

Question: With COC(=O)CNC(=O)CC(Nc1nc2ccccc2[nH]1)c1cccc(C(F)(F)F)c1 (stereo not drawn) [Example 59, Methyl 2-{3-[(1H-1,3-benzodiazol-2-yl)amino]-3-[3-(trifluoromethyl)phenyl]propanamido}acetate] as the molecule, how does the IC50 read?
Answer: < 10 µM

Question: With CN(CC(N)=O)C(=O)CC(Nc1nc2ccccc2[nH]1)c1cccc(C(F)(F)F)c1 (stereo not drawn) [Example 60, 3-[(1H-1,3-benzodiazol-2-yl)amino]-N-(carbamoylmethyl)-N-methyl-3-[3-(trifluoromethyl)phenyl]propanamide] as the molecule, how does the IC50 read?
Answer: 10 to 100 µM

Question: For COC(=O)N1CCN(C(=O)C(Nc2nc3ccccc3[nH]2)c2cccc(C(F)(F)F)c2)CC1 (stereo not drawn) [Example 61, Methyl 4-{2-[(1H-1,3-benzodiazol-2-yl)amino]-2-[3-(trifluoromethyl)phenyl]acetyl}piperazine-1-carboxylate], which IC50 is on record?
Answer: < 10 µM

Question: Which IC50 does the source give for COCC(=O)NCCNC(=O)CC(Nc1nc2ccccc2[nH]1)c1cccc(C(F)(F)F)c1 (stereo not drawn) [Example 62, 3-[(1H-1,3-benzodiazol-2-yl)amino]-N-[2-(2-methoxyacetamido)ethyl]-3-[3-(trifluoromethyl)phenyl]propanamide] here?
Answer: 10 to 100 µM

Question: CCNC(=O)OCCNC(=O)CC(Nc1nc2ccccc2[nH]1)c1cccc(C(F)(F)F)c1 (stereo not drawn) [Example 63, 2-{3-[(1H-1,3-benzodiazol-2-yl)amino]-3-[3-(trifluoromethyl)phenyl]propanamido}ethyl N-ethylcarbamate] was tested. Which IC50 did it give?
Answer: < 10 µM

Question: With CCN(CCO)C(=O)C(Cc1cccc(C(F)(F)F)c1)Nc1nc2ccccc2[nH]1 (stereo not drawn) [Example 64, 2-[(1H-1,3-benzodiazol-2-yl)amino]-N-ethyl-N-(2-hydroxyethyl)-3-[3-(trifluoromethyl)phenyl]propanamide] as the molecule, how does the IC50 read?
Answer: 10 to 100 µM
